One data set in a line: in vivo. The conditions noted are these: mouse, po.
The conditions of data set [1]: mouse, in vivo.
Data set [2] has as its system H5N1 strain A/Mallard/Bavaria/1/2006. In words: microbe, parasite or virus in culture. The data set is classed as cell-based, influenza A virus. The conditions noted are these: for EC50: read-out: EC50 (concentration required to reduce the virus titer to 50%).
For data set [3] the following is noted: cited from earlier work.
The test system of data set [4] is A/FPV/Bratislava/79 (H7N7) viral proteins M1, NP, NS1, PB1.
The subject of data set [5] is A/Regensburg/D6/2009 H1N1pdm09 strain.
For data set [6], the system named is influenza virus strain (H5N1; MB1). The following applies: mouse, in vivo.
Data set [7] relates to vRNP complexes of H5N1 A/Thailand/KAN-1/2004.
Data set [8] concerns caspase activation (PARP cleavage).
The test system of data set [9] is highly pathogenic influenza virus. Set-up: species or system C57BL/6 mice. The following applies: mouse, in vivo.
In data set [10] the test system is H5N1 influenza virus A/Mallard/Bavaria/1/2006.
Data set [11] deals with influenza virus strain A/FPV/Bratislava/79 (H7N7). The following applies: mouse.

Values joined by “and” are separate entries in the source; they are usually repeats but may differ in a detail not shown here. Equal entries are not always repeated. “Also recorded” adds a separate entry of the source. Where two headings read alike, the source gives them in different places.

The bioavailability is dose-corrected exposure relative to a reference, in per cent. Read a low bioavailability as little systemic uptake. Broadly, the half-life is the time needed for the level to fall by half in the phase considered. Low readings indicate rapid decline, high ones slow decline. Take `CC(=O)Oc1ccccc1C(=O)O` [ASA, Acetylsalicylic acid]: the bioavailability in the data set “in vivo” was ~10%. The bioavailability in “in vivo” (15 mg/kg) came to 10.3%. Moreover, the half-life in “in vivo” (15 mg/kg, t1/2) is 8.64 min. Also, the “AUC and Cmax, plasma compared to lung homogenate” value in data set [1] is reported as “about four-fold higher in plasma”. Further, in [1] (iv), the AUC came out at 0.0781 mg⋅h/L, the Plasma clearance result is “high”, the Terminal half-lives result is reported as “short” and the “Volume of distribution at steady state” value was “moderate”. In data set [1] (po, 15 mg/kg), this compound returned an AUC of 0.0688 mg⋅h/L and a t1/2 of 4.54 min. In addition, the “Antiviral effect on virus titers over time” value (shortened to “Antiviral effect … over time”) in [2] was “less potent compared to BAY 81-8781; also recorded: An antiviral effect was also found with ASA (gray triangles) and SA (open triangle) 24 h and 32 h post-infection which, however, was leveled-out at the 48 h time-point”. Moreover, in [2] (Influenza A virus, H5N1, A549, in Anas platyrhynchos), the EC50 was 170 ± 50 µM. Also, the Stability in plasma entry in [3] is on record as “not stable in plasma”.
As to “D,L-lysine acetylsalicylate ⋅ glycine [BAY 81-8781]”, the “Accumulation of viral proteins” value in data set [4] is listed as “does not impact accumulation of viral proteins”. Further, the “Reduction of virus propagation” value in data set [5] is given as “effective to reduce virus propagation”. Moreover, in data set [6], the “Disease progression (symptom score)” value was “rather moderate”; the “Mice protected from death” value is 87.5% and 62.5%; the “Mice protected from death (protected/total)” value is 5/8; the Weight loss entry is listed as “only a moderate weight loss”. The “Release of vRNPs from the nucleus” value in data set [7] is “strongly retained and accumulated in the nucleus”. Further, in [2], the “Antiviral effect … over time” value is “strong and sustained reduction of virus titers at all time-points; also recorded: even stronger reduction of virus titers at all time-points”; the EC50 is 160 ± 60 µM. In the data set with TRAIL mRNA expression, the “TNFα induced activation of TRAIL mRNA” value is reported as “significantly reduced”. In [8], the “Cleavage of caspase substrate PARP” value was “reduces the cleavage of the major caspase substrate PARP”. In addition, in [9], the “Day of death (p.i.)” value is 8.8 days p.i. and 8.8 ± 1.3 days p.i; the “Delay of death of non-protected mice compared to solvent animals” value stood at 2 days; the “Survival (survival/total)” value is 4/8; the “Weight loss and disease symptoms” value was “either showed no or only slight weight loss and marginal disease symptoms”. For the same compound, in data set [10], the “Antiviral effect, compound present for 30 min or 1 h” value is given as “no antiviral effects were found”; the “Antiviral effect, compound present for 2 h or 4 h” value was “a dose dependent antiviral effect was found”; the Virus titer reduction is listed as > 80%. The “EC50 in vivo (concentration of inhaled BAY 81-8781 solution)” value in data set [11] is 1.56% and 1.5%. Moreover, the “Reduction of lung virus titers, oral route” value in data set [11] (in vivo) is “no reduction of virus titers was found”.
As usually defined, the Cmax is the peak of the concentration-time curve. On to salicylate, for which, in data set [1], the “AUC and Cmax, plasma compared to lung homogenate” value is “about four-fold higher in plasma”; the “Cmax, plasma compared to lung” value was “about three-fold higher in plasma than in lung”. Besides, in data set [1] (iv), the “AUC in plasma, SA compared to ASA” value is “about 25 fold”; the AUCnorm was 5.28 kg⋅h/L; the “Cmax in plasma, SA compared to ASA” value is on record as ~2.5 fold. In data set [1] (po), this compound returned an AUC of 15.3 mg⋅h/L and a Cmax of 12500 ng/mL. Further, in [2], the “Antiviral effect … over time” value was “No antiviral effect; also recorded: An antiviral effect was also found with ASA (gray triangles) and SA (open triangle) 24 h and 32 h post-infection which, however, was leveled-out at the 48 h time-point”; the EC50 came out at 700 ± 40 µM.

Values taken from paper PMC5673638 (Frontiers in Microbiology, 2017).
